Assay results: paper PMC11202169, “A Novel Fluorescence-Based Microplate Assay for High-Throughput Screening of hSULT1As Inhibitors” (Biosensors, 2024)

Legend:
Type in all cases: biochemical
[1] = biological target: T1, hSULT1A3 (Homo sapiens, UniProt P0DMM9); test: Fluorescence-based microplate inhibition assay, hSULT1A3-catalyzed HN-241 4-O-sulfation; conditions: for Residue activity (%) hSULT1A3 / activity at 10 µM: test compound 10 μM, HN-241 10 μM, 15 min; for activity at 10 µM: read-out: Residue activity (%) hSULT1A3
T1 construct: 6-histidine tag (N); TEV site (N); made in house; host or cells: Escherichia coli BL21 (DE3), pET29a(+)
T1 sequence (P0DMM9 whole entry): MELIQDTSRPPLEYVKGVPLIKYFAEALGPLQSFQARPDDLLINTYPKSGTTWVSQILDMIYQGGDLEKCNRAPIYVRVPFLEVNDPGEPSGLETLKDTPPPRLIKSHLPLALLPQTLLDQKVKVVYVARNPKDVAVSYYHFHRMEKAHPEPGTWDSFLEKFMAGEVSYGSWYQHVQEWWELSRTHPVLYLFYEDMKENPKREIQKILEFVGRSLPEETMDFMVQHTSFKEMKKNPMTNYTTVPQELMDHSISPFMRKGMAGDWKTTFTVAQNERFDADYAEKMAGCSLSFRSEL

[2] = biological target: T2, hSULT1A1 (Homo sapiens, UniProt P50225); test: Fluorescence-based microplate inhibition assay, hSULT1A1-catalyzed HN-241 4-O-sulfation; conditions: for Residue activity (%) hSULT1A1 / activity at 1 µM: test compound 1 μM, HN-241 1 μM, 15 min; for activity at 1 µM: read-out: Residue activity (%) hSULT1A1; for IC50: hSULT1A1-catalyzed HN-241 4-O-sulfation;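 on all read-outs here: reaction started with 200 µM PAPS at 37 °C, fluorescence read continuously (Ex 350 nm, Em 450 nm), activity expressed relative to DMSO-only control without inhibitor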
T2 construct: 6-histidine tag (N); TEV site (N); made in house; host or cells: Escherichia coli BL21 (DE3), pET29a(+)
T2 sequence (P50225 whole entry): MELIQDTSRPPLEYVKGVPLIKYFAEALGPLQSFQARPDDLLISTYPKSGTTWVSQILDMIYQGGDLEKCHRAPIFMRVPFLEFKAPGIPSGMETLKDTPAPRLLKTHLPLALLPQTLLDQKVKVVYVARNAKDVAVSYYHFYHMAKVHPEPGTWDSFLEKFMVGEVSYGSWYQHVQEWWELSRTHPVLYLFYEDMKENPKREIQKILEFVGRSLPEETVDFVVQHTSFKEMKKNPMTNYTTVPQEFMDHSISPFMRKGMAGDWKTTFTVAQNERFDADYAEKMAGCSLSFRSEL

[3] = biological target: T3, hSULT1A2 (Homo sapiens, UniProt P50226); test: Fluorescence-based microplate inhibition assay, hSULT1A2-catalyzed HN-241 4-O-sulfation; conditions: for Residue activity (%) hSULT1A2 / remaining activity at 10 µM: test compound 10 μM, HN-241 5 μM, 15 min; for remaining activity at 10 µM: 0.25 h, read-out: Residue activity (%) hSULT1A2
T3 construct: 6-histidine tag (N); TEV site (N); made in house; host or cells: Escherichia coli BL21 (DE3), pET29a(+)
T3 sequence (P50226 whole entry): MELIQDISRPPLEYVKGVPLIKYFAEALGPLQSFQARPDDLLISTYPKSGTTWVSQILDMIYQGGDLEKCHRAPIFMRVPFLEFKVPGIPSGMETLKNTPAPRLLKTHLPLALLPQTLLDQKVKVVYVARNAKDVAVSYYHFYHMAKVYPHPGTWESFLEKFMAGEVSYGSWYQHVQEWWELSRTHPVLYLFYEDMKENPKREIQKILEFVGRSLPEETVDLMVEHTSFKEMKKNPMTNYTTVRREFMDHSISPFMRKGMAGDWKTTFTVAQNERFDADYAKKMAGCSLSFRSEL

Residue activity (%) hSULT1A3 [1] [%]	Residue activity (%) hSULT1A1 [2] [%]	Residue activity (%) hSULT1A2 [3] [%]	activity at 10 µM [1] [%]	activity at 1 µM [2] [%]	remaining activity at 10 µM [3] [%]	SMILES	further results
99.83	99.89	89.89	–	–	–	CC(C)=CC/C=C(/C)[C@H]1CC[C@]2(C)[C@@H]1[C@H](O)C[C@@H]1[C@@]3(C)CC[C@H](O)C(C)(C)[C@@H]3[C@@H](O[C@@H]3O[C@H](CO)[C@@H](O)[C@H](O)[C@H]3O[C@@H]3O[C@@H](C)[C@H](O)[C@@H](O)[C@H]3O)C[C@]12C [Ginsenoside F4]	–
114.83	98.37	97.40	–	–	–	COc1cc2c(=O)c(-c3ccc(O)cc3)coc2cc1O[C@@H]1O[C@H](CO)[C@@H](O)[C@H](O)[C@H]1O [Glycitin]	–
–	–	–	121	106	112	CC1(C)[C@@H](O[C@H]2O[C@H](C(=O)O)[C@@H](O)[C@H](O)[C@H]2O[C@@H]2O[C@H](C(=O)O)[C@@H](O)[C@H](O)[C@H]2O)CC[C@]2(C)[C@H]3C(=O)C=C4[C@@H]5C[C@@](C)(C(=O)O)CC[C@]5(C)CC[C@@]4(C)[C@]3(C)CC[C@@H]12 [Glycyrrhizic acid]	–
–	–	–	9.46	0	0	O=c1cc(-c2ccc(Oc3c(O)cc4oc(-c5ccc(O)cc5)cc(=O)c4c3O)cc2)oc2cc(O)cc(O)c12 [Hinokiflavone]	IC50 ([1]; hSULT1A3-catalyzed HN-241 4-O-sulfation): 2130 ± 182 nM; IC50 [2]: 18.9 ± 1.17 nM; IC50 ([3]; hSULT1A2-catalyzed HN-241 4-O-sulfation): 110 ± 14.7 nM
–	–	–	105	85.5	85.1	COc1ccc(-c2oc3c(CC=C(C)C)c(O[C@@H]4O[C@H](CO)[C@@H](O)[C@H](O)[C@H]4O)cc(O)c3c(=O)c2O[C@@H]2O[C@@H](C)[C@H](O)[C@@H](O)[C@H]2O)cc1 [Icariin]	–
104.97	91.81	103.62	–	–	–	COc1ccc(-c2oc3c(CC=C(C)C)c(O[C@@H]4O[C@H](CO)[C@@H](O)[C@H](O)[C@H]4O)cc(O)c3c(=O)c2O)cc1 [Icariside I]	–
–	–	–	117	61.3	89.5	CC(C)Oc1ccc2c(=O)c(-c3ccccc3)coc2c1 [Ipriflavone]	–
–	–	–	92.1	92.5	106	CC(C)=CCOc1c2ccoc2cc2oc(=O)ccc12 [Isoimperatorin]	–
–	–	–	88	15.8	68.4	COc1cc(O)c(CC=C(C)C)c2c1C(=O)CC(c1ccc(O)cc1)O2 (stereo not shown) [Isoxanthohumol]	–
–	–	–	30.9	0	0.21	COc1c(/C=C/C(=O)c2ccc(O)c(CC=C(C)C)c2)ccc(O)c1O [Licochalcone D]	IC50 [2]: 5.37 ± 0.18 nM
–	–	–	100	100	95.1	O=C1C[C@@H](c2ccc(O[C@@H]3O[C@H](CO)[C@@H](O)[C@H](O)[C@H]3O)cc2)Oc2cc(O)ccc21 [Liquiritin]	–
–	–	–	119	128	98.6	C[C@@H]1[C@H]2[C@H](O[C@@H]3O[C@H](CO)[C@@H](O)[C@H](O)[C@H]3O)OC=C(C(=O)O)[C@H]2C[C@@H]1O [Loganic acid]	–
44.99	9.01	12.99	–	–	–	COC(=O)/C=C/c1ccc(O)c(O)c1 [Methyl caffeate acid]	–
79.90	28.87	0.52	–	–	–	Cc1c(O)c(C)c2c(c1O)C(=O)[C@H](Cc1ccc3c(c1)OCO3)CO2 [Methylophiopogonanone A]	–
–	–	–	55.7	50.7	4.73	O=c1c(O)c(-c2ccc(O)cc2O)oc2cc(O)cc(O)c12 [Morin]	–
70.86	53.37	143.65	–	–	–	CC(C)=CCc1c(-c2ccc(O)cc2O)oc2c(CC=C(C)C)c(O)cc(O)c2c1=O [Mulberrin]	–
–	–	–	39.8	0.08	4.43	O=c1c(O)c(-c2cc(O)c(O)c(O)c2)oc2cc(O)cc(O)c12 [Myricetin]	–
60.08	99.20	86.78	–	–	–	COc1cc(-c2oc3cc(O)cc(O)c3c(=O)c2O[C@@H]2O[C@H](CO[C@@H]3O[C@@H](C)[C@H](O)[C@@H](O)[C@H]3O)[C@@H](O)[C@H](O)[C@H]2O)ccc1O [Narcissoside]	–

SMILES	Residue activity (%) hSULT1A3 [1] [%]	Residue activity (%) hSULT1A1 [2] [%]	Residue activity (%) hSULT1A2 [3] [%]	activity at 10 µM [1] [%]	activity at 1 µM [2] [%]	remaining activity at 10 µM [3] [%]	further results
CC(C)=CCC[C@](C)(O)[C@H]1CC[C@]2(C)[C@@H]1[C@H](O)C[C@@H]1[C@@]3(C)CC[C@H](O)C(C)(C)[C@@H]3[C@@H](O[C@@H]3O[C@H](CO)[C@@H](O)[C@H](O)[C@H]3O[C@@H]3O[C@H](CO)[C@@H](O)[C@H](O)[C@H]3O)C[C@]12C [Ginsenoside Rf]	–	–	–	104	102	104	–
CC(C)=CCC[C@](C)(O)[C@H]1CC[C@]2(C)[C@@H]1[C@H](O)C[C@@H]1[C@@]3(C)CC[C@H](O)C(C)(C)[C@@H]3[C@@H](O[C@@H]3O[C@H](CO)[C@@H](O)[C@H](O)[C@H]3O[C@@H]3O[C@@H](C)[C@H](O)[C@@H](O)[C@H]3O)C[C@]12C [Ginsenoside Rg2]	–	–	–	100	113	106	–
C=C(CCC=C(C)C)[C@H]1CC[C@]2(C)[C@@H]1[C@H](O)C[C@@H]1[C@@]3(C)CC[C@H](O)C(C)(C)[C@@H]3[C@@H](O[C@@H]3O[C@H](CO)[C@@H](O)[C@H](O)[C@H]3O[C@@H]3O[C@@H](C)[C@H](O)[C@@H](O)[C@H]3O)C[C@]12C [Ginsenoside Rg6]	124.68	100.32	103.59	–	–	–	–
CC(C)=CCC[C@](C)(O)[C@H]1CC[C@]2(C)[C@@H]1[C@H](O)C[C@@H]1[C@@]3(C)CC[C@H](O)C(C)(C)[C@@H]3[C@@H](O[C@@H]3O[C@H](CO)[C@@H](O)[C@H](O)[C@H]3O)C[C@]12C [Ginsenoside Rh1]	–	–	–	100	114	96.5	–
C=C(CCC=C(C)C)[C@H]1CC[C@]2(C)[C@@H]1[C@H](O)C[C@@H]1[C@@]3(C)CC[C@H](O[C@@H]4O[C@H](CO)[C@@H](O)[C@H](O)[C@H]4O)C(C)(C)[C@@H]3CC[C@]12C [Ginsenoside Rk2]	94.83	97.02	106.88	–	–	–	–
CC(C)=CCOc1c2occc2cc2ccc(=O)oc12 [Imperatorin]	–	–	–	128	101	94.3	–
COc1cc(-c2oc3cc(O)cc(O)c3c(=O)c2O)ccc1O [Isorhamnetin]	–	–	–	58.3	1.36	0.39	–
O=C1C[C@@H](c2ccc(O)cc2)Oc2cc(O)ccc21 [Liquiritigenin]	76.68	58.91	25.92	–	–	–	–
COc1cc(OC)c(CCC(=O)c2ccc(O)cc2)c(OC)c1 [Loureirin B]	71.91	5.84	6.16	–	–	–	–
